According to patent US12678438B2, “Treatment of cancer with CDK inhibitors” (THE TRUSTEES OF THE UNIVERSITY OF PENNSYLVANIA, priority 2019, dated 2026):

How the values were obtained:
[1] = system: MED1 and AR recruitment to the chromatin; experiment: ChIP-seq of genome-wide MED1 and AR binding; format: cell-based, human; details: DHT-treated VCaP and LNCaP, THZ1
Procedure: ChIP was performed using iDeal ChIP-seq Kit for Transcription Factors (Diagenode, C01010170) according to manufacturer's protocol. In brief, the cells were crosslinked with 1% formaldehyde in culture medium for 10 min at room temperature. Cross-linking was terminated by the addition of 1/10 volume 1.25 M glycine for 5 min at room temperature followed by cell lysis and sonication (Bioruptor, Diagenode), resulting in an average chromatin fragment size of 200 bp. Chromatin equivalent to 5×10^6 cells was isolated and incubated with 10 μg antibody overnight at 4° C. (MED1, H3-acetyl K27, AR, and IgG (Diagenode). ChIP-seq libraries were prepared from the ChIP-enriched DNA samples using the TruSeq ChIP Library Preparation Kit (Illumina, IP-202-1012, IP-202-1024) and protocol. In brief, ChIP-enriched DNA (1-10 ng) was converted to blunt-ended fragments. A single A-base was added to fragment ends followed by ligation of Illumina adaptors. The adaptor-modified DNA fragments were enriched by PCR using the Illumina Barcode primers and Phusion DNA polymerase. PCR products were size selected using 3% NuSieve agarose gels (Lonza) followed by gel extraction using QIAEX II reagents (QIAGEN). Libraries were quantified with the Bioanalyzer 2100 (Agilent) and sequenced on the Illumina NextSeq 500 Sequencer (75 nucleotide read length).
Sequencing reads were quality checked with FASTQC (www.bioinformatics.babraham.ac.uk/projects/fastqc) and aligned to the GRCh37 (release 27) genome using the STAR v2.5.1 aligner with default settings. PCR duplicate reads in the aligned bam files were removed using samtools, bam files were converted to CPM normalized bigwig tracks using deeptools, and viewed using the Integrated Genomics Viewer or the UCSC genome browser. Single end reads were extended up to the fragment length (200 bp) along the read direction.
The enrichment peaks for the various transcription factors and histone marks were computed using MACS2, with default settings. Regions found to ubiquitously enriched across a number of next-generation sequencing experiments, also known as the blacklisted peaks (sites.google.com/site/anshulkundaje/projects/blacklists), were excluded in all subsequent analysis.

[2] = system: enzalutamide resistant PCa cell lines; experiment: Enzalutamide resistant PCa cells: immunoblot and colony formation; format: cell-based, human
Procedure: Prostate parental cell lines used in this study were obtained from ATCC, LNCaP-AR cells were a gift from Dr. Charles Sawyers (Memorial Sloan-Kettering Cancer Center, New York, NY), and LNCaP AR-KO cells were a gift from Dr. Dean Tang (Roswell Park Cancer Institute, Buffalo, NY). LNCaP, LNCaP-AR, 22RV1, LAPC4, DU145, PC3, and LNCaP AR-KO prostate cancer cell lines were grown in RPMI 1640 (Gibco, 11875093), and VCaP prostate cancer cell line was grown in DMEM with Glutamax (Gibco, 21013024). The medium was supplemented with 10% Fetal Bovine Serum (FBS) (HYC, SH30910.03) and 1% Penicillin Streptomycin Solution (Invitrogen, 15140122), hereto referred to as “complete media.” The immortalized benign prostate cell line RWPE-1 was grown in keratinocyte media with supplements (Thermo Fisher Scientific, 17005042). LNCaP-AR and VCaP enzalutamide-resistant cell lines were derived from enzalutamide-resistant PCa tumor xenograft as described previously. LNCaP and LAPC4 enzalutamide-resistant cell lines were generated by culturing the cells in presence of 20 μM enzalutamide for 3-4 months in vitro. Polyclonal pools of enzalutamide-resistant cells were cultured and maintained in media containing enzalutamide throughout. All experiments for enzalutamide resistant pools were done in presence of enzalutamide throughout the remainder of all experiments with these cells. The cell lines were tested negative for mycoplasma contamination and maintained in a humidified incubator at 37° C. and 5% CO2.
For the long-term colony formation assay, 10,000-50,000 cells/well in six-well plates (n=3) were seeded and treated with the required drugs/compounds or vehicle for 14 days. Media was refreshed every 4-5 days. Colonies were fixed and stained using 0.5% (w/v) crystal violet (Sigma, C0775) in 20% (v/v) methanol for 30 min, washed with distilled deionized water, and air-dried. To quantify staining, we washed the stained wells with 500 μL 10% acetic acid and using colorimetric assays determined the absorbance at 590 nm using a spectrophotometer (Synergy HT, BioTek Instruments, Vermont-USA).
Cell lysates were prepared with RIPA buffer (Boston Bioproducts, BP-115DG)-10 mM Tris-HCl pH 7.5, 1 mM EDTA, 400 mM NaCl, 0.5% NP-40 and 1 mM DTT, supplemented with protease inhibitor cocktail (Pierce, A32965) and phosphatase inhibitor (Thermo, 1861280). For immunoblotting 200 μg total protein extract was boiled in sample buffer and 15-25 μg aliquots were separated by SDS-PAGE and transferred onto Polyvinylidene Difluoride membrane (GE Healthcare, IPVH00010). The membrane was incubated for one hour in blocking buffer [Tris-buffered saline, 0.1% Tween (TBS-T), 5% nonfat dry milk followed by overnight incubation on a rocker at 4° C. with the primary antibody. […]

CN(C)C/C=C/C(=O)Nc1ccc(C(=O)Nc2cccc(Nc3ncc(Cl)c(-c4c[nH]c5ccccc45)n3)c2)cc1 [THZ1]
genome-wide AR recruitment (ChIP-seq) [1]: significantly limited AR recruitment | genome-wide MED1 recruitment (ChIP-seq) [1]: blocked MED1 recruitment entirely | PSA ([2]; 200 nM THZ1, 24 h): reduced PSA | apoptosis (cleaved PARP, cleaved caspase-3) ([2]; 200 nM THZ1, 24 h): increased apoptosis | p-MED1 ([2]; 200 nM THZ1, 24 h): loss of p-MED1 | growth (colony formation) ([2]; enzalutamide plus 50 nM THZ1): growth inhibition
